One test concerns the target T1, human σ1 receptor (Homo sapiens, UniProt Q99720).
T1 construct: expressed in transfected cells; host or cells: HEK-293
Kind of test: Human σ1 receptor radioligand assay ([3H](+)-pentazocine, transfected HEK-293 membranes). To be noted: class scale, read-out: Binding σ-1 Ki. The method in brief:
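Compounds were tested at a single 1 or 10 μM concentration (% inhibition) or at five concentrations to give Ki. They competed with 5 nM [3H](+)-pentazocine for transfected HEK-293 membranes (7 μg) in 50 mM Tris-HCl pH 8 at 37° C for 120 minutes. Nonspecific binding was set with 10 μM haloperidol, and a filtration scintillation read-out was used.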

The target in a further test is T2, human σ2/TMEM97 receptor (Homo sapiens, UniProt Q5BJF2).
T2 construct: expressed in transfected cells; host or cells: HEK-293
The experiment in a line: Binding assay to human σ2/TMEM97 receptor ([3H]-DTG, transfected HEK-293 membranes). Particulars: class scale, read-out: Binding σ-2 Ki. The method in brief: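 Competition against 10 nM [3H]-DTG (Tris-HCl 50 mM, pH 8.0, 25 °C, 120 min) using 15 μg transfected HEK-293 membrane protein, with 10 μM haloperidol defining NSB. Bound radioactivity counted after filtration; results as single-point % inhibition (1 or 10 μM) or five-point Ki.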

In general, Ki refers to a dissociation constant, usually derived from enzyme kinetics or from competition with a known ligand.

T1 sequence (Q99720 whole entry): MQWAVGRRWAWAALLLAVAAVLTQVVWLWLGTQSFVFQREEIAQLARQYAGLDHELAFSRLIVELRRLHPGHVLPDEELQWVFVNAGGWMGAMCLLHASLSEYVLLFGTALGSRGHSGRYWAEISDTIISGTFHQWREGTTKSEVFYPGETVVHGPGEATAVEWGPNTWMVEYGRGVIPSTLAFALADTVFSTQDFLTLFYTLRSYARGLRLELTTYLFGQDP
T2 sequence (Q5BJF2 whole entry): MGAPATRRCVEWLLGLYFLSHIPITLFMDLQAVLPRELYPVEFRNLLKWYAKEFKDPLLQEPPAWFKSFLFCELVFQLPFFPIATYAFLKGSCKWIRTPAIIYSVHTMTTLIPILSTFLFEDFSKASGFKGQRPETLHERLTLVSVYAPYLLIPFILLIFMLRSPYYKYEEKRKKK

In the case of `Cc1cc(-c2nn(C)c(Cl)c2C(=O)NC2CCN(CCC(C)(C)C)CC2)no1` [Example 166, 5-Chloro-N-(1-(3,3-dimethylbutyl)piperidin-4-yl)-1-methyl-3-(5-methylisoxazol-3-yl)-1H-pyrazole-4-carboxamide], the inhibition constant Ki at human σ1 receptor is 0.1 to 0.5 µM; on human σ2/TMEM97 receptor, under 0.1 µM.

Take `Cn1nc(-c2cccc(C(F)(F)F)n2)c(C(=O)NC2CCN(CCC(C)(C)C)CC2)c1Cl` [Example 167, 5-Chloro-N-(1-(3,3-dimethylbutyl)piperidin-4-yl)-1-methyl-3-(6-(trifluoromethyl)pyridin-2-yl)-1H-pyrazole-4-carboxamide]: the inhibition constant (Ki) on human σ1 receptor and at human σ2/TMEM97 receptor was under 0.1 µM each time.

Take `Cc1cccc(-c2nn(C)c(Cl)c2C(=O)NC2CCN(CCC(C)(C)C)CC2)n1` [Example 168, 5-Chloro-N-(1-(3,3-dimethylbutyl)piperidin-4-yl)-1-methyl-3-(6-methylpyridin-2-yl)-1H-pyrazole-4-carboxamide]: the Ki on human σ1 receptor is 0.1 to 0.5 µM; at human σ2/TMEM97 receptor it was under 0.1 µM.

`Cc1cc(-c2nn(C)c(Cl)c2C(=O)N2CC[C@]3(C2)C[C@H](NCCC(C)(C)C)C3)no1` [Example 169, (5-Chloro-1-methyl-3-(5-methylisoxazol-3-yl)-1H-pyrazol-4-yl)((2s,4r)-2-((3,3-dimethylbutyl)amino)-6-azaspiro[3.4]octan-6-yl)methanone]: the values for the Ki at human σ1 receptor and on human σ2/TMEM97 receptor were over 1 µM and under 0.1 µM, respectively.

On to `Cc1cc(-c2nn(-c3ccncc3)c(Cl)c2C(=O)N2CCC3(CCN(CCC(C)(C)C)CC3)CC2)no1` [Example 170, (5-Chloro-3-(5-methylisoxazol-3-yl)-1-(pyridin-4-yl)-1H-pyrazol-4-yl)(9-(3,3-dimethylbutyl)-3,9-diazaspiro[5.5]undecan-3-yl)methanone], for which the values for the inhibitory constant (Ki) at human σ1 receptor and at human σ2/TMEM97 receptor were 0.1 to 0.5 µM and under 0.1 µM, respectively.

Consider `CCn1nc(-c2ccon2)c(C(=O)N2CCC3(CCN(CCC(C)(C)C)CC3)CC2)c1Cl` [Example 171, (5-Chloro-1-ethyl-3-(isoxazol-3-yl)-1H-pyrazol-4-yl)(9-(3,3-dimethylbutyl)-3,9-diazaspiro[5.5]undecan-3-yl)methanone], for which the values for the inhibition constant Ki at human σ1 receptor and on human σ2/TMEM97 receptor were 0.1 to 0.5 µM and under 0.1 µM, respectively.

For `Cc1cc(-c2nn(-c3ccccn3)c(Cl)c2C(=O)N2CCC3(CCN(CCC(C)(C)C)CC3)CC2)no1` [Example 172, (5-Chloro-3-(5-methylisoxazol-3-yl)-1-(pyridin-2-yl)-1H-pyrazol-4-yl)(9-(3,3-dimethylbutyl)-3,9-diazaspiro[5.5]undecan-3-yl)methanone], the Ki was 0.5 to 1 µM on human σ1 receptor and under 0.1 µM at human σ2/TMEM97 receptor.

`Cn1nc(-c2ccccn2)c(C(=O)N2CCC3(CCN(CCC(C)(C)C)CC3)CC2)c1Cl` [Example 173, (5-Chloro-1-methyl-3-(pyridin-2-yl)-1H-pyrazol-4-yl)(9-(3,3-dimethylbutyl)-3,9-diazaspiro[5.5]undecan-3-yl)methanone]: the Ki on human σ1 receptor was 0.5 to 1 µM; at human σ2/TMEM97 receptor, under 0.1 µM.

Turning to `Cc1cc(-c2nn(C)c(Cl)c2C(=O)N2CCC3(CC2)CC(NCCC(C)(C)C)C3)no1` [Example 174, (5-Chloro-1-methyl-3-(5-methylisoxazol-3-yl)-1H-pyrazol-4-yl)(2-((3,3-dimethylbutyl)amino)-7-azaspiro[3.5]nonan-7-yl)methanone], the inhibition constant (Ki) at human σ1 receptor is 0.5 to 1 µM; on human σ2/TMEM97 receptor, under 0.1 µM.

On to `Cc1cc(-c2nn(C)c(Cl)c2C(=O)N2CCC3(CCN(Cc4ccccc4)CC3)CC2)no1` [Example 175, (9-Benzyl-3,9-diazaspiro[5.5]undecan-3-yl)(5-chloro-1-methyl-3-(5-methylisoxazol-3-yl)-1H-pyrazol-4-yl)methanone], for which the figures for the Ki at human σ1 receptor and on human σ2/TMEM97 receptor were 0.5 to 1 µM and under 0.1 µM, respectively.

As for `CCc1nc(C)c(-c2nn(C)c(Cl)c2C(=O)N2CCC3(CCN(CCC(C)(C)C)CC3)CC2)o1` [Example 176, (5-Chloro-3-(2-ethyl-4-methyloxazol-5-yl)-1-methyl-1H-pyrazol-4-yl)(9-(3,3-dimethylbutyl)-3,9-diazaspiro[5.5]undecan-3-yl)methanone], the Ki at human σ1 receptor was over 1 µM; at human σ2/TMEM97 receptor it was under 0.1 µM.

For the molecule `CC(C)c1cc(-c2nn(C)c(Cl)c2C(=O)N2CCC3(CCN(CCC(C)(C)C)CC3)CC2)no1` [Example 177, (5-Chloro-3-(5-isopropylisoxazol-3-yl)-1-methyl-1H-pyrazol-4-yl)(9-(3,3-dimethylbutyl)-3,9-diazaspiro[5.5]undecan-3-yl)methanone], the inhibitory constant (Ki) on human σ1 receptor is 0.1 to 0.5 µM; at human σ2/TMEM97 receptor it was under 0.1 µM.

With `Cn1cc(-c2nn(C)c(Cl)c2C(=O)N2CCC3(CCN(CCC(C)(C)C)CC3)CC2)cn1` [Example 178, (5-Chloro-1,1′-dimethyl-1H,1′H-[3,4′-bipyrazol]-4-yl)(9-(3,3-dimethylbutyl)-3,9-diazaspiro[5.5]undecan-3-yl)methanone], the inhibition constant (Ki) is over 1 µM on human σ1 receptor and 0.1 to 0.5 µM on human σ2/TMEM97 receptor.

Take `CCn1ccc(-c2nn(C)c(Cl)c2C(=O)N2CCC3(CCN(CCC(C)(C)C)CC3)CC2)n1` [Example 179, (5-Chloro-1′-ethyl-1-methyl-1H,1′H-[3,3′-bipyrazol]-4-yl)(9-(3,3-dimethylbutyl)-3,9-diazaspiro[5.5]undecan-3-yl)methanone]: the results for the Ki at human σ1 receptor and on human σ2/TMEM97 receptor were over 1 µM and under 0.1 µM, respectively.

As to `Cn1nc(-c2cccc(C(F)(F)F)n2)c(C(=O)N2CCC3(CCN(CCC(C)(C)C)CC3)CC2)c1Cl` [Example 180, (5-Chloro-1-methyl-3-(6-(trifluoromethyl)111ndecane-2-yl)-1H-pyrazol-4-yl)(9-(3,3-dimethylbutyl)-3,9-diazaspiro[5.5]111ndecane-3-yl)methanone], the inhibitory constant (Ki) at human σ1 receptor is 0.1 to 0.5 µM; on human σ2/TMEM97 receptor, under 0.1 µM.

With `Cn1ccc(-c2nn(C)c(Cl)c2C(=O)N2CCC3(CCN(CCC(C)(C)C)CC3)CC2)n1` [Example 181, (5-Chloro-1,1′-dimethyl-1H,1′H-[3,3′-bipyrazol]-4-yl)(9-(3,3-dimethylbutyl)-3,9-diazaspiro[5.5]undecan-3-yl)methanone], the Ki at human σ1 receptor is over 1 µM; on human σ2/TMEM97 receptor, 0.1 to 0.5 µM.

Take `CCCn1nc(-c2cc(C)on2)c(C(=O)N2CCC3(CCN(CCC(C)(C)C)CC3)CC2)c1Cl` [Example 182, (5-Chloro-3-(5-methylisoxazol-3-yl)-1-propyl-1H-pyrazol-4-yl)(9-(3,3-dimethylbutyl)-3,9-diazaspiro[5.5]undecan-3-yl)methanone]: the inhibition constant (Ki) at human σ1 receptor is 0.1 to 0.5 µM; at human σ2/TMEM97 receptor, under 0.1 µM.

For the molecule `Cc1cc(-c2nn(C(C)C)c(Cl)c2C(=O)N2CCC3(CCN(CCC(C)(C)C)CC3)CC2)no1` [Example 183, (5-Chloro-1-isopropyl-3-(5-methylisoxazol-3-yl)-1H-pyrazol-4-yl)(9-(3,3-dimethylbutyl)-3,9-diazaspiro[5.5]undecan-3-yl)methanone], the Ki at human σ1 receptor was 0.5 to 1 µM; on human σ2/TMEM97 receptor it was under 0.1 µM.

`CCn1nc(-c2cc(C)on2)c(C(=O)N2CC3(CCN(CCC(C)(C)C)CC3)C2)c1Cl` [Example 184, (5-Chloro-1-ethyl-3-(5-methylisoxazol-3-yl)-1H-pyrazol-4-yl)(7-(3,3-dimethylbutyl)-2,7-diazaspiro[3.5]nonan-2-yl)methanone]: the Ki at human σ1 receptor is 0.1 to 0.5 µM; at human σ2/TMEM97 receptor, under 0.1 µM.

As for `CCCn1nc(-c2cc(C)on2)c(C(=O)N2CC3(CCN(CCC(C)(C)C)CC3)C2)c1Cl` [Example 185, (5-Chloro-3-(5-methylisoxazol-3-yl)-1-propyl-1H-pyrazol-4-yl)(7-(3,3-dimethylbutyl)-2,7-diazaspiro[3.5]nonan-2-yl)methanone], the Ki at human σ1 receptor was 0.1 to 0.5 µM; on human σ2/TMEM97 receptor, under 0.1 µM.

In the case of `CCOc1cccc(-c2nn(C)c(Cl)c2C(=O)N2CCC3(CCN(CCC(C)(C)C)CC3)CC2)n1` [Example 186, (5-Chloro-3-(6-ethoxypyridin-2-yl)-1-methyl-1H-pyrazol-4-yl)(9-(3,3-dimethylbutyl)-3,9-diazaspiro[5.5]undecan-3-yl)methanone], the Ki at human σ1 receptor was 0.1 to 0.5 µM; at human σ2/TMEM97 receptor, under 0.1 µM.

For the molecule `CCn1nc(-c2ccon2)c(C(=O)N2CC3(CCN(CCC(C)(C)C)CC3)C2)c1Cl` [Example 187, (5-Chloro-1-ethyl-3-(isoxazol-3-yl)-1H-pyrazol-4-yl)(7-(3,3-dimethylbutyl)-2,7-diazaspiro[3.5]nonan-2-yl)methanone], the inhibition constant (Ki) on human σ1 receptor is 0.5 to 1 µM; at human σ2/TMEM97 receptor it was under 0.1 µM.

As for `Cc1cc(-c2nn(C(C)C)c(Cl)c2C(=O)N2CC3(CCN(CCC(C)(C)C)CC3)C2)no1` [Example 188, (5-Chloro-1-isopropyl-3-(5-methylisoxazol-3-yl)-1H-pyrazol-4-yl)(7-(3,3-dimethylbutyl)-2,7-diazaspiro[3.5]nonan-2-yl)methanone], the Ki was 0.5 to 1 µM at human σ1 receptor and under 0.1 µM at human σ2/TMEM97 receptor.

Consider `Cc1cccc(-c2nn(C)c(Cl)c2C(=O)N2CCC3(CCN(CCC(C)(C)C)CC3)CC2)n1` [Example 189, (5-Chloro-1-methyl-3-(6-methylpyridin-2-yl)-1H-pyrazol-4-yl)(9-(3,3-dimethylbutyl)-3,9-diazaspiro[5.5]undecan-3-yl)methanone], for which the Ki on human σ1 receptor is 0.5 to 1 µM; on human σ2/TMEM97 receptor it was under 0.1 µM.

As to `CCn1nc(-c2cc(C3CC3)on2)c(C(=O)N2CCC3(CCN(CCC(C)(C)C)CC3)CC2)c1Cl` [Example 190, (5-Chloro-3-(5-cyclopropylisoxazol-3-yl)-1-ethyl-1H-pyrazol-4-yl)(9-(3,3-dimethylbutyl)-3,9-diazaspiro[5.5]undecan-3-yl)methanone], the Ki is 0.1 to 0.5 µM on human σ1 receptor and under 0.1 µM at human σ2/TMEM97 receptor.

The values above are taken from patent publication US20240239781A1, “1H-PYRAZOLE DERIVATIVES AS SIGMA LIGANDS” (ACONDICIONAMIENTO TARRASENSE, priority 2021, published 2024).
